The target in one series is T1, BACE2 (Homo sapiens, UniProt Q9Y5Z0).
T1 construct: purchased R&D Systems 4097-AS
T1 sequence (Q9Y5Z0 63-518): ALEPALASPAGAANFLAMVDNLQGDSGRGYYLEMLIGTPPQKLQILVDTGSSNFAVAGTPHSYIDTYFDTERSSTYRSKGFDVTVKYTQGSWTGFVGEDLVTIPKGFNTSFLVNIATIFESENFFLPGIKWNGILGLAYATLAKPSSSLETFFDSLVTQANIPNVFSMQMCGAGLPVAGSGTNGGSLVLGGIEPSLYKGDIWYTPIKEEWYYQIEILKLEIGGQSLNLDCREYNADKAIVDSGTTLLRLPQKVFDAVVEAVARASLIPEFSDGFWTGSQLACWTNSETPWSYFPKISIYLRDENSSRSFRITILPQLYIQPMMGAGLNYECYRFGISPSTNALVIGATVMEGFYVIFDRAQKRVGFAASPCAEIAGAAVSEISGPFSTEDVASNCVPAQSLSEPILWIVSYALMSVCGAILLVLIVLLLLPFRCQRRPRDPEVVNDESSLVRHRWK
The series can be described thus: BACE2 purified enzyme fluorescence polarization assay. As to conditions: purified human enzyme, fluorescence polarization. The series is classed as biochemical. The protocol: (§1) Purified enzyme inhibition of BACE1, BACE2, CatD and CatE was determined using fluorescence polarization (FP) assays. Briefly, purified enzymes were treated with test compounds (1% DMSO, 37 °C) in the presence of synthetic peptide substrates (150 nM) in 30 μl total volume of NaOAc buffer (100 mM, pH 4.5, 0.0001% Tween-20) in a 384-well plate. After incubation, reactions were stopped and substrate captured by the addition of 1.5 μM streptavidin, and FP measured with an EnVision plate reader (PerkinElmer, excitation 485 nm, emission 530 nm). […] BACE2 activity was assessed with 0.5 nM recombinant BACE2 (R&D Systems 4097-AS) and the same synthetic substrate used for BACE1, with a 1 h incubation time. […] CatE activity was assessed with 1.0 nM recombinant CatE (Creative BioMart CTSE-255H) and the same synthetic substrate used for CatD, with a 1.5 h incubation time.
In general terms: Fluorescence polarisation rises when a labelled molecule tumbles more slowly, as on binding a larger partner.

Series [1] can be described thus: pKa determination by multiplexed capillary electrophoresis. The series is classed as physicochemical. The settings on record: aqueous buffers. The protocol: All pKa values were determined at Analiza, Inc. by multiplexed capillary electrophoresis (mCE) using 96-capillary array electrophoresis instrument to measure the effective mobility (migration time of the compound in relation to neutral marker, DMSO) with ultraviolet detection. The pKa values were obtained from the ionization curves by plotting the compound effective mobility (24 points across pH range 1.7–11.2) versus pH. All pKa results were determined using aqueous buffers with method average absolute error 0.12.

The target in series [2] is T2, CatD (Homo sapiens, UniProt P07339). Kind of series: CatD cellular assay (competition of PF-7802 photolabelling in live ARPE-19 cells). The series is classed as cell-based. Set-up: host or cells: ARPE-19. As to conditions: for CatD potency increase in live cells: CatD enzyme IC50 versus CatD cellular IC50; for IC50: live ARPE-19 cells, PF-7802 photoprobe 100 nM, 30 min. The protocol:
ARPE-19 cells were plated at a density of 1.2 × 10^6 cells per well in six-well dishes 12–24 h before probe labelling. Culture media was removed completely and replaced with 1 ml of the appropriate serum-free media (no supplements) per well. Cells were then pretreated with test compounds at the indicated concentrations for 30 min (0.5% DMSO, 37 °C, 5% CO2). […] Ultraviolet irradiation was performed without culture plate lids for efficient irradiation, and samples were slowly rotated to prevent evaporation. After ultraviolet irradiation, cells were washed twice with Dulbecco's phosphate-buffered saline (DPBS), scraped into DPBS, centrifuged and stored as pellets at −80 °C.
Cells were lysed with sonication on ice in 70 μl DPBS and protein concentrations were determined using a BCA assay (Pierce). Total protein concentrations were then normalized to 1 mg ml^−1 in 50 μl total volume before addition of 5.5 μl click chemistry mix (1 : 3 : 1 : 0.5 volume of 50 mM CuSO4 (Sigma) in H2O : 1.7 mM TBTA (Sigma) in 4:1 t-BuOH:DMSO : 50 mM TCEP (Hampton Research) in dPBS : 10 mM TAMRA-azide (Lumiprobe) in DMSO - mixed immediately before use. Reagent solutions can be premade and stored at 4 °C except for TCEP, which should be made immediately before use). […] All fluorescence gels are presented in greyscale.
Target sequence in this assay (P07339 169-412 limits assumed): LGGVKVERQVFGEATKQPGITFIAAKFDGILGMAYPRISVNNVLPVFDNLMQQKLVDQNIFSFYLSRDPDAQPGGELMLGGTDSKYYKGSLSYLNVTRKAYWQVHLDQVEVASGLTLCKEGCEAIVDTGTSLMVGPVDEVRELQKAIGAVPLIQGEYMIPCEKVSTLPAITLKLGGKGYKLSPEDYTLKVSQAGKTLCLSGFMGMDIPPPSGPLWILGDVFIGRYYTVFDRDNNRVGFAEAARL
Target sequence in this assay (P07339 65-162 limits assumed): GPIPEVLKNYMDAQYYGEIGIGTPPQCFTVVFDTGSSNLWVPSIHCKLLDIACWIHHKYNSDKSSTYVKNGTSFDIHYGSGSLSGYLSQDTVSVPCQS

In series [3] the target is T3, BACE1 (Homo sapiens, UniProt P56817). Kind of series: BACE1 purified enzyme fluorescence polarization assay. The series is classed as biochemical. Set-up: His (C); made in house; host or cells: CHO-K1. The protocol:
as §1
Target sequence in this assay (P56817 46-457): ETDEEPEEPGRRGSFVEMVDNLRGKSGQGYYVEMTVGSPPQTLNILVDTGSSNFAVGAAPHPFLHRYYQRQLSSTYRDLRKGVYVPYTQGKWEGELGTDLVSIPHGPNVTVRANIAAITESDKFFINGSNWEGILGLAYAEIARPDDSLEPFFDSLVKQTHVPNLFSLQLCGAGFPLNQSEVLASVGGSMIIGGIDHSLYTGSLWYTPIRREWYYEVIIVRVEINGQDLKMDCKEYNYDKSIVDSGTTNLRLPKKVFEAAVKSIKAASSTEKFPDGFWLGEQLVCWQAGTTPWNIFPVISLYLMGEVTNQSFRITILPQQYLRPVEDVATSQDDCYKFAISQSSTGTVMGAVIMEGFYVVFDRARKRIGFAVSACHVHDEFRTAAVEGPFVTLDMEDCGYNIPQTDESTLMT

Series [4] addresses T3, BACE1. The series can be described thus: BACE1 biochemical cellular assay (sAPPβ ELISA in H4 cells overexpressing APP695). Type of series: cell-based. Set-up: endogenous in cells; host or cells: H4 human neuroglioma cells overexpressing human APP695. As to conditions: for BACE1 potency increase in live cells: BACE1 enzyme IC50 versus BACE1 cellular IC50; for IC50: sAPPβ ELISA, H4 neuroglioma cells with human wild-type APP. The protocol: Cellular inhibition of BACE1 was determined by measuring sAPPβ, the primary cleavage product of BACE-1, in H4 human neuroglioma cells overexpressing the wild-type human APP695. […] The colorimetric reaction was read by an EnVision plate reader (PerkinElmer).
Target sequence in this assay (P56817 46-501): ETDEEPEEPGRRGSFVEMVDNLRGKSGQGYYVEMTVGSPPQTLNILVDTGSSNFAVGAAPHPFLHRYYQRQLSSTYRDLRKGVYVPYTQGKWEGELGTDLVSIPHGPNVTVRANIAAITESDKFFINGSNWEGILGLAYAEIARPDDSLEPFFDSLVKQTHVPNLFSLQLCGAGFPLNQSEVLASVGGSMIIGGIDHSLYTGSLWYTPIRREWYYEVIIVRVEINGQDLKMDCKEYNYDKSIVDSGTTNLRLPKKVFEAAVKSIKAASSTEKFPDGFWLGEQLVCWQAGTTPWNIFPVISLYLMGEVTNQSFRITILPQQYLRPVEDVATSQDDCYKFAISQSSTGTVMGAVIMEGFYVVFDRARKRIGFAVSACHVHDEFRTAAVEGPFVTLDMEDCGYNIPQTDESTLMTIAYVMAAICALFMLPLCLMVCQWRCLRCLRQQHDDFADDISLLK

For series [5], the target named is T2, CatD. Kind of series: CatD purified enzyme fluorescence polarization assay. The series is classed as biochemical. The settings on record: purified human enzyme, fluorescence polarization, substrate-based. Set-up: final maturation into a non-covalently associated heavy chain and light chain; purchased Sigma C8696; host or cells: human liver. The protocol:
as §1
Target sequence in this assay (P07339 65-162 limits assumed): as the sequence (P07339 65-162 limits assumed) above
Target sequence in this assay (P07339 169-412 limits assumed): as the sequence (P07339 169-412 limits assumed) above

Setting [6] is: purified human enzyme, fluorescence polarization, peptide substrate.

We go through four molecules from article PMC5062570 (Nature Communications, 2016).

Bounds are passed on as bounds.

In general, IC50 refers to the concentration at which inhibition is half-maximal. One may read the pKa as the pH at which an ionisable group is half protonated. A higher pKa goes with a weaker acid or stronger base. Regarding `NC1=N[C@@]2(c3ccc(F)cc3F)CO[C@@H](c3cc(CO)no3)C[C@H]2[C@@H](CF)S1` [PF-3763], the IC50 was 1.6 µM against BACE2; 0.94 µM at CatD [2]; 0.38 µM against BACE1 [3] (setting [6]); 0.08 µM at BACE1 [4]; 16 µM against CatD [5]. The same molecule came in with a pKa in series [1] of 7.0. The “CatD potency increase in live cells” value at CatD [2] is 17 x. At BACE1 [4], the “BACE1 potency increase in live cells” value is on record as 4.8 x.

For `NC1=N[C@@]2(c3ccc(F)cc3F)CO[C@@H](C(=O)O)C[C@H]2[C@@H](CF)S1` [PF-2696], the IC50 at BACE2, at CatD [2], at BACE1 [3] (purified enzyme) and against CatD [5] was above 20 µM each time.

The molecule `C[C@H]1SC(N)=N[C@@]2(c3ccc(F)cc3F)CO[C@@H](c3cc(CO)no3)C[C@@H]12` [PF-9159] returned a pKa in series [1] of 7.8. At CatD [2], the “CatD potency increase in live cells” value is on record as 150 x. For the same molecule, the IC50 on CatD [2] is 0.11 µM; at BACE1 [3] (setting [6]) it was 0.21 µM; on BACE1 [4] it was 0.017 µM; against CatD [5], 17 µM. In addition, the “BACE1 potency increase in live cells” value at BACE1 [4] is reported as 12 x.

As to `NC1=N[C@@]2(c3ccc(F)cc3F)CO[C@@H](c3nc(CO)co3)C[C@H]2[C@@H](CF)S1` [PF-7152], the IC50 against BACE2 worked out at 0.67 µM; at CatD [2], 0.58 µM; at BACE1 [3] (setting [6]) it was 0.46 µM; against BACE1 [4] it was 0.064 µM; on CatD [5], 37 µM. Moreover, the pKa in series [1] turned out to be 6.9. For the same molecule, the “CatD potency increase in live cells” value at CatD [2] is 64 x. The “BACE1 potency increase in live cells” value at BACE1 [4] is recorded as 7.2 x.
